Laboratory results published in patent publication US7033597B2, “Intracellular delivery of biological effectors” (Université de Lausanne, priority 2000, dated 2006).
Where no end group is shown, it is not given here.

Legend:
Assay type in all cases: cell-based
βTC-3 cell line = assay: Panning of phage display library on βTC-3 cells, occurrence of recovered phages
Experimental: (§1) A library of 3×10^8 independent phages displaying random 15-mer epitopes at the surface of the capsids was generated using standard procedures (e.g., in T7 415 or the T7 413b phage, Novagen). See Smith and Scott, Methods Enzymol. 217:228 (1993). Phages were amplified then purified by polyethylene glycol (PEG) precipitation and finally resuspended at a concentration of 10^10 infective particles per μl in Tris-EDTA buffer (10:1 mM, TE) as described (by Smith and Scott, supra). Phages (10^12) were added to cells in culture medium for 1 to 24 hours. Longer incubation times were preferred to favor isolation of phages that escaped proteolytic degradation in endocytotic vesicles. Following binding and internalization, cells were washed and non-internalized phages were destroyed by digestion with subtilisin (3 mg/ml) (44). Following extensive washing, internalized phages were then recovered by lysing cells in a buffer containing 2% deoxycholate, 10 mM Tris-HC1 and 2mM EDTA, pH 8.0. Recovered phages were finally amplified in E. coli cells (XL-1-Blue) and purified as described above. This preparation of selected phages was then used for a second round of panning. Three to five sequential rounds were performed to obtain enrichment of specific phage-bearing peptide sequences.
The pancreatic β-cell line βTC-3 was panned with the phage display library mentioned herein. […] Panning experiments using βTC-3 cells were performed with 10^9 phages used at each step of the enrichment procedure. The number of phages recovered at 0 ° C.
The occurrence of phages recovered after three steps of panning in the βTC-3 cell line is seen in Table 2.

βTC-3 cells [1] = assay: Titration of phage P1 incubated with βTC-3 cells
Experimental: as §1
The ratio of input/recovered phages is also shown.

A549 = assay: Specificity of phage uptake, internalized and recovered phages; conditions: 10^8 phages incubated 16 hours
Experimental: as §1
(§2) Determination of the specificity of uptake was performed by titrating the number of recovered phages in 5 different cell lines.

HeLa = assay: as above; conditions: 10^8 phages incubated 16 hours
Experimental: as §1, §2

HepG2 = assay: as above; conditions: 10^8 phages incubated 16 hours
Experimental: as §1, §2

WiDr = assay: as above; conditions: 10^8 phages incubated 16 hours
Experimental: as §1, §2

βTC-3 = assay: as above
Experimental: as §1, §2

5 different cell lines = assay: Specificity of phage uptake across the cell lines; conditions: βTC-3 vs HeLa, WiDr, HepG2, A549
Experimental: as §1, with “sequences. […]” for “sequences.”

βTC-3 cells [2] = assay: Immunocytochemistry and fluorescence studies of oximes; conditions: fluorescence studies
Experimental: Single phages isolated according to the enrichment scheme above were amplified. The phage peptides and one of oximes 1–6 were added and incubated for 24 hours with cells in culture medium. Medium was then washed off and cells fixed in cold methanol-acetone (1:1) for 5 minutes. Antibodies directed against the phage capsid or against biotin (peptides) were used with a fluorescein-conjugated (phage) or Texas Red labeled (peptides) secondary antibody. Classical fluorescence microscopic studies and confocal microscopic assays were performed.
Oximes 1–3 were first tested for their entry into βTC-3 cells. […] The superiority of oxime 3 may be due to the flexibility of the PEG spacer, which increases binding to the receptors on the cells.
Oximes 4–6, which are similar to oxime 3, were then synthesized and assayed for binding avidity and entry efficiency.

For RRTK [Oxime P1], the “occurrence of phages recovered after three steps of panning” value (from here on “occurrence of phages recovered”) (βTC-3 cell line) was 61%, the “% Recovered” value (βTC-3 cells [1]; incubation 1 h) was 0.01% and the “initial phage input recovered” value (βTC-3 cells [1]; titration experiments) was ≤ 10%. The Phages recovered (A549) was 10^3, the Phages recovered (HeLa) was <1 × 10^2 and the Phages recovered (HepG2) was <10. For the same substance, the Phages recovered (WiDr) was 2 × 10^2, the efficiency of internalization (βTC-3; phage experiments, βTC-3 cells) was “low” and the uptake by cells (βTC-3; phage experiments, βTC-3 cells) was “taken up specifically by βTC-3 cells via receptor-mediated endocytosis”. The Phages recovered (βTC-3; βTC-3, 10^8 phages incubated 16 hours) was 1 × 10^7 and the “uptake by βTC-3 cells relative to any other cell line tested” value (5 different cell lines) was 10,000 to 1,000,000 fold.

In the case of RRPK [Oxime P66], the “occurrence of phages recovered” value (βTC-3 cell line) is reported as 5.5%.

In the case of RKLR [Oxime P6], the “occurrence of phages recovered” value (βTC-3 cell line) is reported as 17%.

With “Oxime 3: tetraoxime with four copies of RRTK, two-unit PEG spacer between peptide and core 1, FITC reporter (RRTK-OH; not fully specified (N-terminus, bridges); also: tetraoxime: four RRTK copies joined by thioether to Cys of branched trilysine core 1, core carries aminooxyacetyl-Lys(FITC) via oxime bond)” the “binding to receptors on the cell surface” value (βTC-3 cells [2]) was “clearly bound to the receptors on the surface of βTC-3 cells”.
